{"source": "patent US11279733B2", "about": "“Peptide antibiotics” (priority 2017, dated 2022)", "key": {"bacterial strains": {"system": "bacterial strains", "assay": "Potentiation/synergy antimicrobial assay (checkerboard, FICI) with antibiotics", "type": "cell-based", "settings": "GN_181 E. coli mcr-1", "experimental": "Potentiation/synergy antimicrobial assays were conducted in the same manner as the standard MICs described above, with the following modifications. Assays were performed in 384-well non-binding surface plates (NBS; Corning 3460) and in Cation-adjusted Mueller Hinton Broth (CA-MHB; BD, Cat. No. 212322) with a final assay volume of 50 μL once bacteria was added at 5×10^5 CFU/mL. Antibiotics and octapeptin compounds were plated in duplicate as a 2-fold concentration series, in a matrix checkerboard format. The bacterial cell density of the resultant assay plates after 18-20 h incubation at 37° C. was read by optical density 600 nm (OD600) using a Tecan M1000 Pro Spectrophotometer, and analysed for ≥90% growth inhibition compared to the growth control to determine active concentrations. Synergistic effect was calculated based on the fractional inhibitory concentration index (FICI) by the following equation, where synergy is deemed FICI 0.5: […]"}, "A. baumannii ATCC 19606": {"system": "A. baumannii ATCC 19606", "settings": "ATCC 19606", "experimental": "(§1) Bacteria were either obtained from American Type Culture Collection (ATCC; Manassas, Va., USA) or independent academic clinical isolate collections, as listed in Table 18 below. Bacteria were cultured in Nutrient broth (NB; Bacto Laboratories, catalogue No. 234000) or Mueller Hinton broth (MHB; Bacto Laboratories, catalogue No. 211443) at 37° C. overnight with shaking (˜180 RPM). A sample of each culture was then diluted 50-fold in fresh MHB and incubated at 37° C. for 2-3 h with shaking (˜180 RPM). Compound stock solutions were prepared as 0.64 mg/mL or 2.56 mg/mL in water. The compounds, at twice the final desired concentration, were serially diluted 2-fold across the wells of 96-well plates (Polystyrene, Corning, catalogue No. 3370). Mid-log phase bacterial cultures (after 2-3 h incubation) were diluted to a final concentration of 1×10^6 colony forming units (CFU)/mL, and 50 μL was added to each well giving a final cell density of 5×10^5 and a compound concentration range of 32 μg/mL to 0.015 μg/mL (128-0.06 μg/mL against P. aeruginosa PA9704)."}, "A. baumannii GN_093 PmxR": {"system": "A. baumannii GN_093 PmxR", "settings": "GN 093 PmxR", "experimental": "as §1"}, "E. coli ATCC 25922": {"system": "E. coli ATCC 25922", "settings": "ATCC 25922", "experimental": "as §1"}, "K. pneumoniae ATCC 13883": {"system": "K. pneumoniae ATCC 13883", "settings": "ATCC 13883", "experimental": "as §1"}, "[1]": {"system": "K. pneumoniae ATCC 700603, MDR", "settings": "ATCC 700603", "experimental": "as §1"}, "[2]": {"system": "K. pneumoniae ATCC BAA-2146, NDM-1 pos", "settings": "ATCC BAA-2146", "experimental": "as §1"}, "[3]": {"system": "K. pneumoniae GN_102 PmxR", "settings": "GN 102 PmxR", "experimental": "as §1"}, "[4]": {"system": "K. pneumoniae GN_106, PmxR", "settings": "GN 106, PmxR", "experimental": "as §1"}, "P. aeruginosa ATCC 27853": {"system": "P. aeruginosa ATCC 27853", "settings": "ATCC 27853", "experimental": "as §1"}, "[5]": {"system": "P. aeruginosa GN_043, PmxR", "experimental": "as §1"}, "[6]": {"system": "P. aeruginosa GN_105, PmxR", "settings": "GN 105, PmxR", "experimental": "as §1"}, "[7]": {"system": "S. aureus ATCC 25923, MSSA", "settings": "ATCC 25923", "experimental": "as §1"}}, "note": "Where two headings read alike, the source gives them in different places. Positions of bridges follow the written chain, without caps; N, C: chain ends. Non-standard residues stand in square brackets, D forms with d. Residues, ends and D or L forms follow the SMILES beside them. *: point of attachment. Nonanoyl = CCCCCCCCC(=O)*; Octanoyl = CCCCCCCC(=O)*; dDap = NC[C@@H](N)C(=O)O; Dab = NCC[C@H](N)C(=O)O", "data": [{"molecule": "CC(=O)NC[C@H]1CN(c2ccc(N3CCOCC3)c(F)c2)C(=O)O1", "note": "[Linezolid, linezolid]", "values": [{"measurement": "MIC of antibiotic with OctC4 at concn 0", "setting": "bacterial strains; OctC4 0 μg/mL", "result": ">32", "unit": "µg/mL"}, {"measurement": "MIC of antibiotic with OctC4 at concn 0.03", "setting": "bacterial strains; OctC4 0.03 μg/mL", "result": 8, "unit": "µg/mL"}, {"measurement": "MIC of antibiotic with OctC4 at concn 0.0625", "setting": "bacterial strains; OctC4 0.0625 μg/mL", "result": 4, "unit": "µg/mL"}, {"measurement": "MIC of antibiotic with OctC4 at concn 0.125", "setting": "bacterial strains; OctC4 0.125 μg/mL", "result": 4, "unit": "µg/mL"}, {"measurement": "MIC of antibiotic with OctC4 at concn 0.25", "setting": "bacterial strains; OctC4 0.25 μg/mL", "result": 0.25, "unit": "µg/mL"}]}, {"molecule": "CCCCCCCC(=O)N[C@H](CN)C(=O)N[C@H]1CCNC(=O)[C@H](CC(C)C)NC(=O)[C@H](CCN)NC(=O)[C@H](CCN)NC(=O)[C@H](CC(C)C)NC(=O)[C@@H](CC(C)C)NC(=O)[C@H](CCN)NC1=O", "note": "[compound 8978, nC7CO-D-Dap-cyc[L-Dab-L-Dab-D-Leu-L-Leu-L-Dab-L-Dab-L-Leu]] (Octanoyl-[dDap][Dab][Dab][dL]L[Dab][Dab]L; lactam 2-C)", "values": [{"measurement": "MIC A. baumannii ATCC 19606", "setting": "A. baumannii ATCC 19606", "result": 32, "unit": "µg/mL"}, {"measurement": "MIC A. baumannii GN_093 PmxR", "setting": "A. baumannii GN_093 PmxR", "result": 8, "unit": "µg/mL"}, {"measurement": "MIC E. coli ATCC 25922", "setting": "E. coli ATCC 25922", "result": 4, "unit": "µg/mL"}, {"measurement": "MIC K. pneumoniae ATCC 13883", "setting": "K. pneumoniae ATCC 13883", "result": 16, "unit": "µg/mL"}, {"measurement": "MIC K. pneumoniae ATCC 700603, MDR", "setting": "[1]", "result": 16, "unit": "µg/mL"}, {"measurement": "MIC K. pneumoniae ATCC BAA-2146, NDM-1 pos", "setting": "[2]", "result": 16, "unit": "µg/mL"}, {"measurement": "MIC K. pneumoniae GN_102 PmxR", "setting": "[3]", "result": 32, "unit": "µg/mL"}, {"measurement": "MIC K. pneumoniae GN_106, PmxR", "setting": "[4]", "result": 32, "unit": "µg/mL"}, {"measurement": "MIC P. aeruginosa ATCC 27853", "setting": "P. aeruginosa ATCC 27853", "result": 2, "unit": "µg/mL"}, {"measurement": "MIC P. aeruginosa GN_043, PmxR", "setting": "[5]; P. aeruginosa GN_043, PmxR", "result": 4, "unit": "µg/mL"}, {"measurement": "MIC P. aeruginosa GN_105, PmxR", "setting": "[6]", "result": 2, "unit": "µg/mL"}, {"measurement": "MIC S. aureus ATCC 25923, MSSA", "setting": "[7]", "result": ">32", "unit": "µg/mL"}]}, {"molecule": "CCCCCCCCC(=O)N[C@@H](CCN)C(=O)N[C@H](C(=O)N[C@@H](CCN)C(=O)N[C@H]1CCNC(=O)[C@H](Cc2c[nH]c3ccccc23)NC(=O)[C@H](CCN)NC(=O)[C@H](CCN)NC(=O)[C@H](CC(C)C)NC(=O)[C@@H](Cc2ccccc2)NC(=O)[C@H](CCN)NC1=O)[C@@H](C)O", "note": "[compound 9032, nC8CO-L-Dab-L-Thr-L-Dab-cyc[L-Dab-L-Dab-D-Phe-L-Leu-L-Dab-L-Dab-L-Trp]] (Nonanoyl-[Dab]T[Dab][Dab][Dab][dF]L[Dab][Dab]W; lactam 4-C)", "values": [{"measurement": "MIC A. baumannii ATCC 19606", "setting": "A. baumannii ATCC 19606", "result": 8, "unit": "µg/mL"}, {"measurement": "MIC A. baumannii GN_093 PmxR", "setting": "A. baumannii GN_093 PmxR", "result": 8, "unit": "µg/mL"}, {"measurement": "MIC E. coli ATCC 25922", "setting": "E. coli ATCC 25922", "result": 4, "unit": "µg/mL"}, {"measurement": "MIC K. pneumoniae ATCC 13883", "setting": "K. pneumoniae ATCC 13883", "result": 8, "unit": "µg/mL"}, {"measurement": "MIC K. pneumoniae ATCC 700603, MDR", "setting": "[1]", "result": 8, "unit": "µg/mL"}, {"measurement": "MIC K. pneumoniae ATCC BAA-2146, NDM-1 pos", "setting": "[2]", "result": 8, "unit": "µg/mL"}, {"measurement": "MIC K. pneumoniae GN_102 PmxR", "setting": "[3]", "result": 4, "unit": "µg/mL"}, {"measurement": "MIC K. pneumoniae GN_106, PmxR", "setting": "[4]", "result": 4, "unit": "µg/mL"}, {"measurement": "MIC P. aeruginosa ATCC 27853", "setting": "P. aeruginosa ATCC 27853", "result": 2, "unit": "µg/mL"}, {"measurement": "MIC P. aeruginosa GN_043, PmxR", "setting": "[5]; polymyxin-resistant", "result": 1, "unit": "µg/mL"}, {"measurement": "MIC P. aeruginosa GN_105, PmxR", "setting": "[6]", "result": 2, "unit": "µg/mL"}, {"measurement": "MIC S. aureus ATCC 25923, MSSA", "setting": "[7]", "result": 16, "unit": "µg/mL"}]}]}
